Measurements from patent US20150094474A1, “AGRICULTURAL CHEMICALS” (Redx Pharma Ltd., priority 2012, published 2015).

Columns and labels:
barley = test: Herbicidal bioassay, barley (% necrosis); type: in vivo
Protocol: (§1) A laboratory bioassay was conducted to screen ten compounds (Fluazifop (25); Ethyl fluazifop (62); five fluazifop analogues: 27, 28, 63, 64 and 65; mesofulfuron (6); and two mesosulfuron analogues: 8 and 61. for activity against Lolium perenne, barley, peas and Chinese cabbage. Compounds were diluted in DMSO. Controls were performed using both DMSO and water.
(§2) Plants were obtained as seeds and were grown to the 2-4 true leaf stage. Plants were grown individually in seed trays. Each plant (in an approximately 3 cm diameter plug) was then detached from the tray for spraying. Environmental conditions were closely monitored and recorded and were within the optimal range of the target species.
(§3) The compounds were screened at a range of six concentrations, eg. 0.05%, 0.01%, 0.005%, 0.001%, 0.0005% and 0.0001%. Treatments will be applied directly onto the plants, using a potter tower.
(§4) One plant of each type will be sprayed using a potter tower. The 4 different types of weeds will be placed in a 10 cm diameter area underneath the potter sprayer and sprayed simultaneously. The growth of the plants and any Phytotoxicity effects will then be assessed at specified growth intervals, according to EPPO guideline PP1/135. Five replicates will be performed for each treatment, for each species.

peas = test: Herbicidal bioassay, peas (% necrosis); type: in vivo
Protocol: as §1, §2, §3, §4

CC(CO)Oc1ccc(Oc2ccc(C(F)(F)F)cn2)cc1 (stereo not drawn) [Compound 27, 2-[4-[[5-(Trifluoromethyl)-2-pyridyl]oxy]phenoxy]propan-1-ol]
C (less than 50% necrosis): Sum of % necrosis in barley (barley; Dose 0.000001, Day 0) | Sum of % necrosis in barley (barley; Dose 0.000001, Day 3) | Sum of % necrosis in barley (barley; Dose 0.000001, Day 7) | Sum of % necrosis in barley (barley; Dose 0.000001, Day 10) | Sum of % necrosis in barley (barley; Dose 0.000001, Day 14) | Sum of % necrosis in barley (barley; Dose 0.000001, Day 21) | Sum of % necrosis in barley (barley; Dose 0.000005, Day 0) | Sum of % necrosis in barley (barley; Dose 0.000005, Day 3) | Sum of % necrosis in barley (barley; Dose 0.000005, Day 7) | Sum of % necrosis in barley (barley; Dose 0.000005, Day 10) | Sum of % necrosis in barley (barley; Dose 0.000005, Day 14) | Sum of % necrosis in barley (barley; Dose 0.000005, Day 21) | Sum of % necrosis in barley (barley; Dose 0.00001, Day 0) | Sum of % necrosis in barley (barley; Dose 0.00001, Day 3) | Sum of % necrosis in barley (barley; Dose 0.00001, Day 7) | Sum of % necrosis in barley (barley; Dose 0.00001, Day 10) | Sum of % necrosis in barley (barley; Dose 0.00001, Day 14) | Sum of % necrosis in barley (barley; Dose 0.00001, Day 21) | Sum of % necrosis in barley (barley; Dose 0.00005, Day 0) | Sum of % necrosis in barley (barley; Dose 0.00005, Day 3) | Sum of % necrosis in barley (barley; Dose 0.00005, Day 7) | Sum of % necrosis in barley (barley; Dose 0.00005, Day 10) | Sum of % necrosis in barley (barley; Dose 0.00005, Day 14) | Sum of % necrosis in barley (barley; Dose 0.00005, Day 21) | Sum of % necrosis in barley (barley; Dose 0.0001, Day 0) | Sum of % necrosis in barley (barley; Dose 0.0001, Day 3) | Sum of % necrosis in barley (barley; Dose 0.0001, Day 7) | Sum of % necrosis in barley (barley; Dose 0.0001, Day 10) | Sum of % necrosis in barley (barley; Dose 0.0001, Day 14) | Sum of % necrosis in barley (barley; Dose 0.0001, Day 21) | Sum of % necrosis in barley (barley; Dose 0.0005, Day 0) | Sum of % necrosis in barley (barley; Dose 0.0005, Day 3) | Sum of % necrosis in barley (barley; Dose 0.0005, Day 7) | Sum of % necrosis in barley (barley; Dose 0.0005, Day 10) | Sum of % necrosis in barley (barley; Dose 0.0005, Day 14) | Sum of % necrosis in barley (barley; Dose 0.0005, Day 21) | Sum of % necrosis in Peas (peas; Dose 0.000001, Day 0) | Sum of % necrosis in Peas (peas; Dose 0.000001, Day 1) | Sum of % necrosis in Peas (peas; Dose 0.000001, Day 3) | Sum of % necrosis in Peas (peas; Dose 0.000001, Day 7) | Sum of % necrosis in Peas (peas; Dose 0.000001, Day 10) | Sum of % necrosis in Peas (peas; Dose 0.000001, Day 14) | Sum of % necrosis in Peas (peas; Dose 0.000001, Day 21) | Sum of % necrosis in Peas (peas; Dose 0.000005, Day 0) | Sum of % necrosis in Peas (peas; Dose 0.000005, Day 1) | Sum of % necrosis in Peas (peas; Dose 0.000005, Day 3) | Sum of % necrosis in Peas (peas; Dose 0.000005, Day 7) | Sum of % necrosis in Peas (peas; Dose 0.000005, Day 10) | Sum of % necrosis in Peas (peas; Dose 0.000005, Day 14) | Sum of % necrosis in Peas (peas; Dose 0.000005, Day 21) | Sum of % necrosis in Peas (peas; Dose 0.00001, Day 0) | Sum of % necrosis in Peas (peas; Dose 0.00001, Day 1) | Sum of % necrosis in Peas (peas; Dose 0.00001, Day 3) | Sum of % necrosis in Peas (peas; Dose 0.00001, Day 7) | Sum of % necrosis in Peas (peas; Dose 0.00001, Day 10) | Sum of % necrosis in Peas (peas; Dose 0.00001, Day 14) | Sum of % necrosis in Peas (peas; Dose 0.00001, Day 21) | Sum of % necrosis in Peas (peas; Dose 0.00005, Day 0) | Sum of % necrosis in Peas (peas; Dose 0.00005, Day 1) | Sum of % necrosis in Peas (peas; Dose 0.00005, Day 3) | Sum of % necrosis in Peas (peas; Dose 0.00005, Day 7) | Sum of % necrosis in Peas (peas; Dose 0.00005, Day 10) | Sum of % necrosis in Peas (peas; Dose 0.00005, Day 14) | Sum of % necrosis in Peas (peas; Dose 0.00005, Day 21) | Sum of % necrosis in Peas (peas; Dose 0.0001, Day 0) | Sum of % necrosis in Peas (peas; Dose 0.0001, Day 1) | Sum of % necrosis in Peas (peas; Dose 0.0001, Day 3) | Sum of % necrosis in Peas (peas; Dose 0.0001, Day 7) | Sum of % necrosis in Peas (peas; Dose 0.0001, Day 10) | Sum of % necrosis in Peas (peas; Dose 0.0001, Day 14) | Sum of % necrosis in Peas (peas; Dose 0.0001, Day 21) | Sum of % necrosis in Peas (peas; Dose 0.0005, Day 0) | Sum of % necrosis in Peas (peas; Dose 0.0005, Day 1) | Sum of % necrosis in Peas (peas; Dose 0.0005, Day 3) | Sum of % necrosis in Peas (peas; Dose 0.0005, Day 7) | Sum of % necrosis in Peas (peas; Dose 0.0005, Day 10) | Sum of % necrosis in Peas (peas; Dose 0.0005, Day 14) | Sum of % necrosis in Peas (peas; Dose 0.0005, Day 21)
